In patent US7064124B2, “NF-κB inhibitor containing substituted benzoic acid derivative as active ingredient” (Daiichi Suntory Pharma Co., Ltd., priority 2001, dated 2006):
Converted amounts (≈) assume the structure as drawn.

How the values were obtained:
[1] = tested on: NF-κB; experiment: NF-κB luciferase reporter assay in A549/NF-κBLuc cells stimulated with IL-1β; format: cell-based, human; conditions: Homo sapiens, A549, A549/NF-κBLuc cells; compound added 1 hour before IL-1β, then 3 hours incubation; luciferase activity; read-out: NF-κB Inhibitory Activity (IC50)
Procedure: Effect on Human Lung Cancer-Derived Cell A549 (A549/NF-κBluc) Containing Stably Introduced Luciferase Plasmid (pNFκB-Luc, Stratagene. U.S.A.) Regulated by NF-κB Binding Sequence
Using Lipofectamine (Lifetech Oriental, Tokyo), pNFκB-Luc and pSV2neo (Clontech, U.S.A.) were co-transfected into the A549 cell (ATCC CCL185) and G418 sulfate (1 mg/ml, Lifetech Oriental) was added to the culture medium to select cells containing stably introduced pNFκB-Luc A549/NF-κBLuc.
The compound obtained in Examples each was added to A549/NF-κBLuc and one hour after that, IL-1β capable of activating NF-κB was added. The incubation was further continued for 3 hours.
NF-κB Inhibitory Activity (IC50) of Substituted Benzoic Acid Derivitives: […]

| IC50 [1] [mg/L] | melting point [°C] | Structure (SMILES) |
| --- | --- | --- |
| 7 (≈ 17.1 µM) | 119 to 122.5 | COC1=C(OC)C(=O)C(Cc2ccc(O)c(C(=O)Nc3cccnc3)c2)=C(C)C1=O [Example 158, N-(Pyridin-3-yl)-5-(5,6-dimethoxy-3-methyl-1,4-benzoquinon-2-yl)methyl-2-hydroxybenzamide] |
| 26 (≈ 51.5 µM) | 115 to 118 | COC1=C(OC)C(=O)C(Cc2ccc(OCc3cccnc3)c(C(=O)NC3CCCCC3)c2)=C(C)C1=O [Example 171, N-Cyclohexyl-5-(5,6-dimethoxy-3-methyl-1,4-benzoquinon-2-yl)methyl-2-(3-pyridylmethyloxy)benzamide] |
| 6 (≈ 11.1 µM) | 223 to 225.5 | COC1=C(OC)C(=O)C(Cc2ccc(O)c(C(=O)Nc3ccc(S(=O)(=O)C(F)(F)F)cc3)c2)=C(C)C1=O [Example 174, N-[5-(5,6-Dimethoxy-3-methyl-1,4-benzoquinon-2-yl)methyl-2-hydroxybenzoyl]-4-(trifluoromethylsulfonyl)aniline] |
|  | 134 to 136.5 | COC1=C(OC)C(=O)C(Cc2ccc(O)c(C(=O)Nc3ncccc3C(=O)O)c2)=C(C)C1=O [Example 195, N-(3-Hydroxycarbonylpyridin-2-yl)-5-(5,6-dimethoxy-3-methyl-1,4-benzoquinon-2-yl)methyl-2-hydroxybenzamide] |
|  | 238 to 241 | COC1=C(OC)C(=O)C(Cc2ccc(O)c(C(=O)Nc3ccc(C(=O)O)cn3)c2)=C(C)C1=O [Example 198, N-(5-Hydroxycarbonylpyridin-2-yl)-5-(5,6-dimethoxy-3-methyl-1,4-benzoquinon-2-yl)methyl-2-hydroxybenzamide] |
|  | 119 to 121.5 | COC1=C(OC)C(=O)C(Cc2ccc(O)c(C(=O)Nc3ccc(-n4ccnc4)cc3)c2)=C(C)C1=O [Example 209, N-[5-(5,6-Dimethoxy-3-methyl-1,4-benzoquinon-2-yl)methyl-2-hydroxybenzoyl]-4-(imidazol-1-yl)aniline] |
|  | 182 to 185.5 | COC1=C(OC)C(=O)C(Cc2ccc(O)c(C(=O)Nc3ccc(-c4ccn[nH]4)cc3)c2)=C(C)C1=O [Example 211, N-[5-(5,6-Dimethoxy-3-methyl-1,4-benzoquinon-2-yl)methyl-2-hydroxybenzoyl]-4-(1H-pyrazol-3-yl)aniline] |
|  | 218 to 220.5 | COC1=C(OC)C(=O)C(Cc2ccc(O)c(C(=O)Nc3ccnc(OC)c3)c2)=C(C)C1=O [Example 231, N-(2-Methoxypyridin-4-yl)-5-(5,6-dimethoxy-3-methyl-1,4-benzoquinon-2-yl)methyl-2-hydroxybenzamide] |
|  | 245 to 247 | CC1=C(C)C(=O)C(Cc2ccc(O)c(C(=O)Nc3ccncc3)c2)=C(C)C1=O [Example 238, N-(Pyridin-4-yl)-5-(3,5,6-trimethyl-1,4-benzoquinon-2-yl)methyl-2-hydroxybenzamide] |

Second part, the compound before the results:

| Structure (SMILES) | IC50 [1] [mg/L] | melting point [°C] |
| --- | --- | --- |
| COC1=C(OC)C(=O)C(Cc2ccc(O)c(C(=O)Nc3ccc(F)cc3)c2)=C(C)C1=O [Example 142, N-[5-(5,6-Dimethoxy-3-methyl-1,4-benzoquinon-2-yl)methyl-2-hydroxybenzoyl]-4-fluoroaniline] | 9 (≈ 21.2 µM) | 125 to 127 |
| COC1=C(OC)C(=O)C(Cc2ccc(O)c(C(=O)Nc3ccccc3C(F)(F)F)c2)=C(C)C1=O [Example 146, N-[5-(5,6-Dimethoxy-3-methyl-1,4-benzoquinon-2-yl)methyl-2-hydroxybenzoyl]-2-trifluoromethylaniline] | 11 (≈ 23.1 µM) | 111 to 114 |
| CCOC(=O)c1ccc(NC(=O)c2cc(CC3=C(C)C(=O)C(OC)=C(OC)C3=O)ccc2OC(C)=O)cc1 [Example 147, Ethyl N-[5-(5,6-dimethoxy-3-methyl-1,4-benzoquinon-2-yl)methyl-2-acetoxybenzoyl]-4-aminobenzoate] | 19 (≈ 36.4 µM) | 154 to 156.5 |
| CCOC(=O)c1ccc(NC(=O)c2cc(CC3=C(C)C(=O)C(OC)=C(OC)C3=O)ccc2O)cc1 [Example 148] | 3 (≈ 6.26 µM) | 176 to 179 |
| COC1=C(OC)C(=O)C(Cc2ccc(OC(C)=O)c(C(=O)Nc3ccc(CC#N)cc3)c2)=C(C)C1=O [Example 149, N-[5-(5,6-Dimethoxy-3-methyl-1,4-benzoquinon-2-yl)methyl-2-acetoxybenzoyl]-4-cyanomethylaniline] | 25 (≈ 51.2 µM) | 125 to 128 |
| COC1=C(OC)C(=O)C(Cc2ccc(O)c(C(=O)Nc3ccc(CC#N)cc3)c2)=C(C)C1=O [Example 150, N-[5-(5,6-Dimethoxy-3-methyl-1,4-benzoquinon-2-yl)methyl-2-hydroxybenzoyl]-4-cyanomethylaniline] | 4 (≈ 8.96 µM) | 164.5 to 166 |
| COC1=C(OC)C(=O)C(Cc2ccc(OC(C)=O)c(C(=O)Nc3ccc(S(=O)(=O)C(F)(F)F)cc3)c2)=C(C)C1=O [Example 173, N-[5-(5,6-Dimethoxy-3-methyl-1,4-benzoquinon-2-yl)methyl-2-acetoxybenzoyl]-4-(trifluoromethylsulfonyl)aniline] | 9 (≈ 15.5 µM) | 84.5 to 87 |
| COC1=C(OC)C(=O)C(Cc2ccc(OC(C)=O)c(C(=O)Nc3ncccc3C(=O)O)c2)=C(C)C1=O [Example 194, N-(3-Hydroxycarbonylpyridin-2-yl)-5-(5,6-dimethoxy-3-methyl-1,4-benzoquinon-2-yl)methyl-2-acetoxybenzamide] |  | 148 to 151 |
| COC1=C(OC)C(=O)C(Cc2ccc(OC(C)=O)c(C(=O)Nc3ccc(C(=O)O)cn3)c2)=C(C)C1=O [Example 197, N-(5-Hydroxycarbonylpyridin-2-yl)-5-(5,6-dimethoxy-3-methyl-1,4-benzoquinon-2-yl)methyl-2-acetoxybenzamide] |  | 123 to 125 |
| COC1=C(OC)C(=O)C(Cc2ccc(OC(C)=O)c(C(=O)Nc3cccnc3OC)c2)=C(C)C1=O [Example 215, N-(2-Methoxypyridin-3-yl)-5-(5,6-dimethoxy-3-methyl-1,4-benzoquinon-2-yl)methyl-2-acetoxybenzamide] |  | 111 to 112 |
| COC1=C(OC)C(=O)C(Cc2ccc(OC(C)=O)c(C(=O)Nc3cc(OC)ccc3OC)c2)=C(C)C1=O [Example 219, N-[5-(5,6-Dimethoxy-3-methyl-1,4-benzoquinon-2-yl)methyl-2-acetoxybenzoyl]-2,5-dimethoxyaniline] |  | 118.5 to 120 |
| COC1=C(OC)C(=O)C(Cc2ccc(OC(C)=O)c(C(=O)Nc3ccnc(OC)c3)c2)=C(C)C1=O [Example 230, N-(2-Methoxypyridin-4-yl)-5-(5,6-dimethoxy-3-methyl-1,4-benzoquinon-2-yl)methyl-2-acetoxybenzamide] |  | 138 to 140.5 |
| CC(=O)Oc1ccc(CC2=C(C)C(=O)C(C)=C(C)C2=O)cc1C(=O)O [Example 233, 5-(3,5,6-Trimethyl-1,4-benzoquinon-2-yl)methyl-2-acetoxybenzoic acid] |  | 157 to 159.5 |
| CC(=O)Oc1ccc(CC2=C(C)C(=O)C(C)=C(C)C2=O)cc1C(=O)Nc1ccc(C(F)(F)F)cc1 [Example 234, N-[5-(3,5,6-Trimethyl-1,4-benzoquinon-2-yl)methyl-2-acetoxybenzoyl]-4-trifluoromethylaniline] |  | 180 to 181 |
| CC(=O)Oc1ccc(CC2=C(C)C(=O)C(C)=C(C)C2=O)cc1C(=O)Nc1cccnc1Cl [Example 236, N-(2-Chloropyridin-3-yl)-5-(3,5,6-trimethyl-1,4-benzoquinon-2-yl)methyl-2-acetoxybenzamide] |  | 130 to 131 |
